This note sets out measurements from PubChem BioAssay (NCI).

Some test systems named below: HOP-92 NSCLC; OVCAR-3 ovarian; NCI-H460 lung; U251 CNS; UO-31 renal; MALME-3M melanoma; UACC-62 melanoma; OVCAR-4 ovarian; MDA-MB-231 breast; DU-145 prostate.
What all share (assay): NCI anticancer screen, dose series, 48 h

Molecules are shown by their SMILES.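 Results reflect a 48-hour exposure of cells in 96-well plates to compound at five concentrations. GI50 is the concentration that inhibits growth by half. TGI: concentration producing complete growth inhibition.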

As to `CCOc1ccc(C(C)=O)cc1NC(=O)c1cccc(-c2nnn(CC)n2)c1`, the GI50 in the experiment on HOP-92 NSCLC was 0.418 µM; in the experiment on OVCAR-3 ovarian, 0.377 µM; with NCI-H460 lung, 0.423 µM; in the experiment with U251 CNS, 0.458 µM; in the experiment on UO-31 renal it was 1.94 µM; with MALME-3M melanoma it was 11.4 µM. For the same molecule, the GI50 in the experiment on UACC-62 melanoma is 0.615 µM; in the experiment with OVCAR-4 ovarian, 4.96 µM; with MDA-MB-231 breast it was 1.62 µM; in the experiment on DU-145 prostate, 1.07 µM. The TGI was 49.4 µM in the experiment on HOP-92 NSCLC; 5.89 µM in the experiment with OVCAR-3 ovarian; > 100 µM in the experiment with NCI-H460 lung; 16.7 µM in the experiment with U251 CNS; > 100 µM with UO-31 renal; 63.9 µM in the experiment with MALME-3M melanoma. Also, the TGI with UACC-62 melanoma was 23.4 µM; in the experiment with OVCAR-4 ovarian, > 100 µM; with MDA-MB-231 breast, 58.5 µM; in the experiment on DU-145 prostate it was > 100 µM.

Turning to `NCCOc1ncccc1/C=C1\c2ccccc2-c2ccc([N+](=O)[O-])cc21`, the GI50 is 0.0234 µM in the experiment with HOP-92 NSCLC; 0.181 µM in the experiment with OVCAR-3 ovarian; < 0.0104 µM in the experiment with NCI-H460 lung; 0.0269 µM in the experiment on U251 CNS; 0.0439 µM in the experiment with UO-31 renal; 0.055 µM in the experiment on MALME-3M melanoma. In addition, the GI50 in the experiment on UACC-62 melanoma was 0.0784 µM; in the experiment with OVCAR-4 ovarian, 0.194 µM; in the experiment with MDA-MB-231 breast it was 0.206 µM; in the experiment with DU-145 prostate, 0.0193 µM. In addition, the TGI in the experiment with HOP-92 NSCLC was 0.477 µM; in the experiment with OVCAR-3 ovarian, 0.449 µM; in the experiment with NCI-H460 lung, 0.154 µM; in the experiment on U251 CNS, 0.303 µM; in the experiment with UO-31 renal, 0.186 µM; with MALME-3M melanoma, 0.275 µM. The TGI with UACC-62 melanoma turned out to be 0.386 µM; in the experiment with OVCAR-4 ovarian, 0.827 µM; in the experiment on MDA-MB-231 breast, 0.613 µM; in the experiment with DU-145 prostate, 0.224 µM.

Consider `NC(CSC(c1ccccc1)(c1ccccc1)c1ccc(F)cc1)C(=O)O` (centres undefined), for which the GI50 was 0.701 µM with HOP-92 NSCLC; 0.355 µM in the experiment on OVCAR-3 ovarian; 0.336 µM in the experiment on NCI-H460 lung; 0.374 µM in the experiment with U251 CNS; 14.1 µM in the experiment on UO-31 renal; 2.39 µM in the experiment on MALME-3M melanoma. The GI50 was 0.408 µM in the experiment on UACC-62 melanoma, 9.62 µM in the experiment on OVCAR-4 ovarian, 0.326 µM with MDA-MB-231 breast and 0.815 µM in the experiment on DU-145 prostate. Also, the TGI with HOP-92 NSCLC is 29.3 µM; with OVCAR-3 ovarian it was 4.38 µM; with NCI-H460 lung, 14.9 µM; in the experiment with U251 CNS it was > 60.5 µM; in the experiment on UO-31 renal, > 100 µM; in the experiment with MALME-3M melanoma it was > 100 µM. The TGI in the experiment with OVCAR-4 ovarian was > 100 µM; with MDA-MB-231 breast it was 5.5 µM; with DU-145 prostate, 4.05 µM.

As to `COc1ccc2[nH]c(C(=O)OCc3ccc4cccc(O)c4n3)cc2c1`, the GI50 with HOP-92 NSCLC was 0.209 µM; with OVCAR-3 ovarian, 1.11 µM; in the experiment with NCI-H460 lung, 2.24 µM; in the experiment with U251 CNS it was 1.67 µM; with UO-31 renal it was 0.551 µM; in the experiment on MALME-3M melanoma, 1.52 µM. Moreover, the GI50 in the experiment on UACC-62 melanoma is 1.31 µM; with OVCAR-4 ovarian, 1.83 µM; with MDA-MB-231 breast, 1.17 µM; in the experiment on DU-145 prostate it was 1.53 µM. For the same molecule, the TGI with HOP-92 NSCLC turned out to be 1.42 µM; in the experiment with OVCAR-3 ovarian, 2.41 µM; in the experiment on NCI-H460 lung, 5.41 µM; in the experiment on U251 CNS, 3.15 µM; in the experiment on UO-31 renal it was 1.99 µM; in the experiment on MALME-3M melanoma, 2.89 µM. Also, the TGI is 2.6 µM with UACC-62 melanoma, 3.55 µM in the experiment on OVCAR-4 ovarian, 2.49 µM in the experiment on MDA-MB-231 breast and 2.93 µM in the experiment on DU-145 prostate.

`O=C(CN(/C=C/C(=O)C(F)(F)F)c1ccccc1)c1ccc(Cl)cc1`: the GI50 with HOP-92 NSCLC is 19.1 µM; with OVCAR-3 ovarian, 21.6 µM; in the experiment on NCI-H460 lung it was 16.1 µM; with U251 CNS it was 15.7 µM; in the experiment on UO-31 renal it was 19.9 µM; in the experiment with MALME-3M melanoma it was 18.1 µM. Besides, the GI50 in the experiment with UACC-62 melanoma was 13.1 µM; with OVCAR-4 ovarian, 26.6 µM; with MDA-MB-231 breast, 16.5 µM; with DU-145 prostate it was 37.7 µM. The TGI with HOP-92 NSCLC turned out to be 42.1 µM; in the experiment with OVCAR-3 ovarian it was 46.7 µM; with NCI-H460 lung, 38.2 µM; in the experiment with U251 CNS, 29.5 µM; in the experiment with UO-31 renal, 41.7 µM; in the experiment with MALME-3M melanoma, 40.7 µM. In addition, the TGI with UACC-62 melanoma is 25.8 µM; in the experiment on OVCAR-4 ovarian it was 70.1 µM; with MDA-MB-231 breast, 33.3 µM; in the experiment on DU-145 prostate, > 100 µM.
